In patent US8367718B2, “Epigallocatechin gallate trimer and α-glucosidase inhibitor containing epigallocatechin gallate polymer” (Suntory Holdings Limited, priority 2008, dated 2013):
Entries after “also recorded” stand apart in the source; their conditions may differ.

Columns and labels:
α-glucosidase = experiment: Alpha-glucosidase inhibitory activity of EGCG polymers (p-nitrophenyl-α-D-glucopyranoside substrate, A405 nm); type: biochemical; conditions: for α-glucosidase inhibitory activity (in words): qualitative statement; for inhibitory activity relative to the EGCG monomer: α-glucosidase, compared with EGCG monomer
Method: A […] sodium phosphate buffer solution was prepared by blending 0.1 M NaH2PO4.2H2O and 0.1M Na2HPO4.12H2O and the pH was adjusted to 7.0. To this, 2 g/L bovine serum albumin (F-V, manufactured by Nacalai Tesque Inc., pH 5.2, purity 96%) and 0.2 g/L NaN3 (manufactured by Nacalai Tesque Inc., special grade reagent) were added. An enzyme solution was prepared by dissolving α-glucosidase (manufactured by Wako Pure Chemical Industries Ltd., derived from yeast, 100 units/mg) in the above buffer solution so as to obtain 0.5 units/mg protein /ml (100 μg/20 ml). A substrate solution was prepared by dissolving p-nitrophenyl-α-D-glucopyranoside (manufactured by Nacalai Tesque Inc., special grade reagent) in the buffer solution so as to obtain 5 mM (7.525 mg/5 ml).
Of the samples used for evaluation, theasinensin (TSN)-A and TSN-D were synthesized in accordance with the paper (Hashimoto, F. Nonaka, G. Nishioka, I. Chem. Pharm. Bull. 36 (5), 1676-1684 (1988)) and oolongtheanin-gallate (hereinafter referred to as “OTNG”) were synthesized in accordance with the method described in the paper of J. Agric. Food Chem. 53, 4593-4598 (2005).
These samples were prepared so as to satisfy 10 mg/ml DMSO and serially diluted 6 times by doubling dilution. Using a 96-well microplate, enzyme solution (45 μL) was added to a sample solution (10 μL) and pre-incubated at 37° C. for 5 minutes. Thereafter, the substrate solution (45 μL) was added and absorbance was measured at A 405 nm. After incubation was performed at 37° C. for 5 minutes, absorbance was measured at A 405 nm. The inhibition rate was calculated as a difference from the absorbance at A405 nm of a control, which contains DMSO alone in place of a sample. Each activity measurement was performed twice.

maltase = conditions: background art, literature values; read-out: maltase inhibitory activity IC50; cited from earlier work

## O=C(O[C@@H]1Cc2c(cc(O)c(Cc3c(O)c(Cc4c(O)cc(O)c5c4O[C@H](c4cc(O)c(O)c(O)c4)[C@H](OC(=O)c4cc(O)c(O)c(O)c4)C5)c4c(c3O)C[C@@H](OC(=O)c3cc(O)c(O)c(O)c3)[C@@H](c3cc(O)c(O)c(O)c3)O4)c2O)O[C@@H]1c1cc(O)c(O)c(O)c1)c1cc(O)c(O)c(O)c1 [OHBF-trimer-4, (2R,3R)-8-(((2R,3R)-6-(((2R,3R)-5,7-dihydroxy-3-(3,4,5-trihydroxybenzoyloxy)-2-(3,4,5-trihydroxyphenyl)chroman-6-yl)methyl)-5,7-dihydroxy-3-(3,4,5-trihydroxybenzoyloxy)-2-(3,4,5-trihydroxyphenyl)chroman-8-yl)methyl)-5,7-dihydroxy-2-(3,4,5-trihydroxyphenyl)chroman-3-yl 3,4,5-trihydroxybenzoate]
α-glucosidase; listed as oolong homobisflavan-trimer-4
  α-glucosidase inhibitory activity (in words): particularly strong activities; also recorded: significant inhibitory activity; also recorded: high activity
α-glucosidase
  inhibitory activity relative to the EGCG monomer: 10 times

## 3-sophoroside-5-glucoside of peonidin
maltase
  IC50: 200 µM

## O=C(O[C@@H]1Cc2c(cc(O)c(Cc3c(O)cc(O)c4c3O[C@H](c3cc(O)c(O)c(O)c3)[C@H](OC(=O)c3cc(O)c(O)c(O)c3)C4)c2O)O[C@@H]1c1cc(O)c(O)c(O)c1)c1cc(O)c(O)c(O)c1 [OHBF-B, oolong homobisflavan-B]
α-glucosidase
  α-glucosidase inhibitory activity (in words): strong α-glucosidase inhibitory activity

## O=C(OC1Cc2c(O)cc(O)c(Cc3c(O)c(Cc4c(O)c(Cc5c(O)cc(O)c6c5OC(c5cc(O)c(O)c(O)c5)C(OC(=O)c5cc(O)c(O)c(O)c5)C6)c(O)c5c4OC(c4cc(O)c(O)c(O)c4)C(OC(=O)c4cc(O)c(O)c(O)c4)C5)c4c(c3O)CC(OC(=O)c3cc(O)c(O)c(O)c3)C(c3cc(O)c(O)c(O)c3)O4)c2OC1c1cc(O)c(O)c(O)c1)c1cc(O)c(O)c(O)c1 [OHBF-tetramer-2, (2R,2′R,3R,3′R)-8,8′-(2R,2′R,3R,3′R)-8,8′-methylenebis(5,7-dihydroxy-3-(3,4,5-trihydroxybenzoyloxy)-2-(3,4,5-trihydroxyphenyl)chroman-8,6-diyl)bis(methylene)bis(5,7-dihydroxy-2-(3,4,5-trihydroxyphenyl)chroman-8,3-diyl) bis(3,4,5-trihydroxybenzoate)]
α-glucosidase
  α-glucosidase inhibitory activity (in words): significant inhibitory activity

## O=C(O[C@@H]1Cc2c(O)cc(O)cc2O[C@@H]1c1cc(O)c(O)c(O)c1-c1c([C@H]2Oc3cc(O)cc(O)c3C[C@H]2OC(=O)c2cc(O)c(O)c(O)c2)cc(O)c(O)c1O)c1cc(O)c(O)c(O)c1 (single isomer, unassigned) [TSN-D, theasinensin-D]
α-glucosidase
  α-glucosidase inhibitory activity (in words): strong α-glucosidase inhibitory activity

## O=C(OC1Cc2c(O)cc(O)c(Cc3c(O)c(Cc4c(O)c(Cc5c(O)cc(O)c6c5OC(c5cc(O)c(O)c(O)c5)C(OC(=O)c5cc(O)c(O)c(O)c5)C6)c5c(c4O)CC(OC(=O)c4cc(O)c(O)c(O)c4)C(c4cc(O)c(O)c(O)c4)O5)c4c(c3O)CC(OC(=O)c3cc(O)c(O)c(O)c3)C(c3cc(O)c(O)c(O)c3)O4)c2OC1c1cc(O)c(O)c(O)c1)c1cc(O)c(O)c(O)c1 [OHBF-tetramer-1, (2R,3R)-8-(H2R,3R)-8-(((2R,3R)-8-(((2R,3R)-5,7-dihydroxy-3-(3,4,5-trihydroxybenzoyloxy)-2-(3,4,5-trihydroxyphenyl)chroman-8-yl)methyl)-5,7-dihydroxy-3-(3,4,5-trihydroxybenzoyloxy)-2-(3,4,5-trihydroxyphenyl)chroman-6-yl)methyl)-5,7-dihydroxy-3-(3,4,5-trihydroxybenzoyloxy)-2-(3,4,5-trihydroxyphenyl)chroman-6-yl)methyl)-5,7-dihydroxy-2-(3,4,5-trihydroxyphenyl)chroman-3-yl 3,4,5-trihydroxybenzoate]
α-glucosidase; listed as Oolong homobisflavan-tetramer-1
  α-glucosidase inhibitory activity (in words): particularly strong activities
α-glucosidase; listed as oolong homobisflavan-tetramer-1
  α-glucosidase inhibitory activity (in words): significant inhibitory activity; also recorded: high activity
α-glucosidase
  inhibitory activity relative to the EGCG monomer: 10 times

## O=C(O[C@@H]1Cc2c(O)cc(O)cc2O[C@@H]1c1cc(O)c(O)c(O)c1-c1c([C@H]2Oc3cc(O)cc(O)c3C[C@H]2OC(=O)c2cc(O)c(O)c(O)c2)cc(O)c(O)c1O)c1cc(O)c(O)c(O)c1 (single isomer, unassigned) [TSN-A, theasinensin A]
maltase
  IC50: 142 µM

## O=C(O[C@@H]1Cc2c(cc(O)c(Cc3c(O)c(Cc4c(O)cc(O)c5c4O[C@H](c4cc(O)c(O)c(O)c4)[C@H](OC(=O)c4cc(O)c(O)c(O)c4)C5)c(O)c4c3O[C@H](c3cc(O)c(O)c(O)c3)[C@H](OC(=O)c3cc(O)c(O)c(O)c3)C4)c2O)O[C@@H]1c1cc(O)c(O)c(O)c1)c1cc(O)c(O)c(O)c1 [OHBF-trimer-2, (2R,3R)-8-(((2R,3R)-8-(((2R,3R)-5,7-dihydroxy-3-(3,4,5-trihydroxybenzoyloxy)-2-(3,4,5-trihydroxyphenyl)chroman-6-yl)methyl)-5,7-dihydroxy-3-(3,4,5-trihydroxybenzoyloxy)-2-(3,4,5-trihydroxyphenyl)chroman-6-yl)methyl)-5,7-dihydroxy-2-(3,4,5-trihydroxyphenyl)chroman-3-yl 3,4,5-trihydroxybenzoate]
α-glucosidase
  α-glucosidase inhibitory activity (in words): significant inhibitory activity
